# Experimental data: ChEMBL document CHEMBL3351764, “Design, synthesis and biological activity of flavonoid derivatives as selective agonists for neuromedin U 2 receptor” (Bioorg Med Chem, 2014)
# Activity calls are given as the source filed them. No cut-off for these calls is given here.
# Tests used:
# [1] = target: Adrenocorticotropic hormone receptor (Homo sapiens) (UniProt Q01718); assay: Agonist activity at human MC2 receptor at 100 uM to 5 mM
# [2] = target: Adrenocorticotropic hormone receptor (Mus musculus) (UniProt Q64326); assay: Agonist activity at mouse MC2 receptor at 100 uM to 5 mM
# Adrenocorticotropic hormone receptor (Mus musculus), sequence (Q64326 whole entry): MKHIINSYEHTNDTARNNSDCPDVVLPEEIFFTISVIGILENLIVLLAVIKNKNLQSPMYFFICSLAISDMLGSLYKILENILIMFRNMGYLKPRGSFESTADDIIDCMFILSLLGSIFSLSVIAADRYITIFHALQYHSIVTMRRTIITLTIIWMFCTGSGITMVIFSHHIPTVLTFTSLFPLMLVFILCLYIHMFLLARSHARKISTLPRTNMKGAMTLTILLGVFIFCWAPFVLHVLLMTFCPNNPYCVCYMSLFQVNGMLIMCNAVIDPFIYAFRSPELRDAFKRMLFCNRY
# [3] = target: Melanocortin receptor 4 (Mus musculus) (UniProt P56450); assay: Agonist activity at mouse MC4 receptor at 100 uM to 5 mM
# Melanocortin receptor 4 (Mus musculus), sequence (P56450 whole entry): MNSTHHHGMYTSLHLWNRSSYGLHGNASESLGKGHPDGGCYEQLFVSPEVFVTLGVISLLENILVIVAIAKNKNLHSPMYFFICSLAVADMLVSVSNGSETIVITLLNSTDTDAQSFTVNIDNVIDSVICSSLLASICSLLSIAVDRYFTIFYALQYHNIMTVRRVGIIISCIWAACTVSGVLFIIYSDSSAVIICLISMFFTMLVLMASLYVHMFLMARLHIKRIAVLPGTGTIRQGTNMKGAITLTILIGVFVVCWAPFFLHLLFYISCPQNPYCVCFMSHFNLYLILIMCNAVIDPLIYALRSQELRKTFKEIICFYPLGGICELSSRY
# [4] = target: Melanocortin receptor 5 (Mus musculus) (UniProt P41149); assay: Agonist activity at mouse MC5 receptor at 100 uM to 5 mM
# Melanocortin receptor 5 (Mus musculus), sequence (P41149 whole entry): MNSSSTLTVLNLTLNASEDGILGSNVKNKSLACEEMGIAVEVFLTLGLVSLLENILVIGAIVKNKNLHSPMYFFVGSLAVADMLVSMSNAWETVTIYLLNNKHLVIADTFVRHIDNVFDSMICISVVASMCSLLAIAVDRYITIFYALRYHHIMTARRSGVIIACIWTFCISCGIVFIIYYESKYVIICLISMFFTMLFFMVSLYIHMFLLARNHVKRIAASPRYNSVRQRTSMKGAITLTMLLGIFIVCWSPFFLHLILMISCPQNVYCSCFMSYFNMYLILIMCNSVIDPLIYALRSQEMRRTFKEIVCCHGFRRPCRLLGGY
# [5] = target: T1, 5-hydroxytryptamine receptor 2C (Homo sapiens) (UniProt P28335); assay: Agonist activity at human 5HT2C receptor at 100 uM to 5 mM
# T1 sequence (whole entry): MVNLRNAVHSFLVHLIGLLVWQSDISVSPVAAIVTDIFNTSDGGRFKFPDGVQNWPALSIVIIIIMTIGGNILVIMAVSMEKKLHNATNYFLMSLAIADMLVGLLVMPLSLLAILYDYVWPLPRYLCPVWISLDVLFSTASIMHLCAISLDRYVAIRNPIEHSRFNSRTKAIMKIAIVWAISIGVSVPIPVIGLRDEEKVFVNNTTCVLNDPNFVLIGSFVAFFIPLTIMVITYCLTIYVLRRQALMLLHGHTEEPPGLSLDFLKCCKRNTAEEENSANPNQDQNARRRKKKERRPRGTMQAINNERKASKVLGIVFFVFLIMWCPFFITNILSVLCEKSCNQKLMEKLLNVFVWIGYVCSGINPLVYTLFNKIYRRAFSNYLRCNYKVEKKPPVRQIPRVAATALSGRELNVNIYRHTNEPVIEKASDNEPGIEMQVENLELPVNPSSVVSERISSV
# [6] = target: Melanin-concentrating hormone receptor 1 (Homo sapiens) (UniProt Q99705); assay: Agonist activity at human MCH1 receptor at 100 uM to 5 mM
# Melanin-concentrating hormone receptor 1 (Homo sapiens), sequence (Q99705 whole entry): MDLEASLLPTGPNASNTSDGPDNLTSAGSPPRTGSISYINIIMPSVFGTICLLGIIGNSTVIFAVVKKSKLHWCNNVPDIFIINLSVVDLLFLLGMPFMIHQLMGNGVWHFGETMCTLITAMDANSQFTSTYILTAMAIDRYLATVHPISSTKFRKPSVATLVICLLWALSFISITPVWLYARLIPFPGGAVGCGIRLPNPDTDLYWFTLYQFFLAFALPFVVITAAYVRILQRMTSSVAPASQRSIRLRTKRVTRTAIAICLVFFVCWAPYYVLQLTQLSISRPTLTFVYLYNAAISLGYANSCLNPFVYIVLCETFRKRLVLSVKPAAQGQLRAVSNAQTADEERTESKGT
# [7] = target: D(1B) dopamine receptor (Homo sapiens) (UniProt P21918); assay: Agonist activity at human D5 receptor at 100 uM to 5 mM
# D(1B) dopamine receptor (Homo sapiens), sequence (P21918 whole entry): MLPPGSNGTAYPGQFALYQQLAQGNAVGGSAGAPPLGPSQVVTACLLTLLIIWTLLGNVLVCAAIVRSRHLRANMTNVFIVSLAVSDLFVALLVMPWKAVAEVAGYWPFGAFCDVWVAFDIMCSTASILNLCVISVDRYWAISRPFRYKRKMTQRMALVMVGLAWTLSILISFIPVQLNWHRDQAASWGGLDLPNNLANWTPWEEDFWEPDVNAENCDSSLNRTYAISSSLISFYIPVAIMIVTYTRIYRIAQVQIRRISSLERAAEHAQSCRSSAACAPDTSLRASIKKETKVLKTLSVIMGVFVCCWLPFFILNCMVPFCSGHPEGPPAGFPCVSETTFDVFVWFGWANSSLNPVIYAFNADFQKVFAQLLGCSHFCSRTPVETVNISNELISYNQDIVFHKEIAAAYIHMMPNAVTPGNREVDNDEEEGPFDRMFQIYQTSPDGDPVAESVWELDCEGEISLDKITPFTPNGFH
# [8] = target: T2, Adenosine receptor A3 (Homo sapiens) (UniProt P0DMS8); assay: Agonist activity at human A3 receptor at 100 uM to 5 mM
# T2 sequence (whole entry): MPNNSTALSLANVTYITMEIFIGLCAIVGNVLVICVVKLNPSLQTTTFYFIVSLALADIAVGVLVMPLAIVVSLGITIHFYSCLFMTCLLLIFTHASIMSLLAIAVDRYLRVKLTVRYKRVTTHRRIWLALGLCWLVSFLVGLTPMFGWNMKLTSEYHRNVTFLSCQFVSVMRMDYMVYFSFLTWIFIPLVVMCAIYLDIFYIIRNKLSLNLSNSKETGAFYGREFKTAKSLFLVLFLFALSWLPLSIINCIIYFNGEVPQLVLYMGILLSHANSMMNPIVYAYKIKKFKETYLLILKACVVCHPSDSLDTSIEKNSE
# [9] = target: T3, Parathyroid hormone/parathyroid hormone-related peptide receptor (Homo sapiens) (UniProt Q03431); assay: Agonist activity at human PTH receptor at 100 uM to 5 mM
# T3 sequence (whole entry): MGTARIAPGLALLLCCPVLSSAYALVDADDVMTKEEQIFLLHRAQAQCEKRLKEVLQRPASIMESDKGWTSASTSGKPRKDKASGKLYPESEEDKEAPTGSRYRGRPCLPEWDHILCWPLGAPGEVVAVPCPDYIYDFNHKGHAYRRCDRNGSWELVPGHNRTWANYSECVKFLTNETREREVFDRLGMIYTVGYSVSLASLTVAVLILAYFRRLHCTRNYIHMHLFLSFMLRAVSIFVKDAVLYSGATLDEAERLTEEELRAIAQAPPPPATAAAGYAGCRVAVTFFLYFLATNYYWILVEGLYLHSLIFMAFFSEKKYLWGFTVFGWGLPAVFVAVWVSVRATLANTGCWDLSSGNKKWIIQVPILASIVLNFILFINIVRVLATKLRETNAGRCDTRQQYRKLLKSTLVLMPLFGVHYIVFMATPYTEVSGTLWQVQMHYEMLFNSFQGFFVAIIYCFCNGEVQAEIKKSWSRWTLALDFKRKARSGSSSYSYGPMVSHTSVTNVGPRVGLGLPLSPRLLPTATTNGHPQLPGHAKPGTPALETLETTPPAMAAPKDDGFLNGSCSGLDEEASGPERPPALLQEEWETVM
# [10] = target: T4, Neuropeptide Y receptor type 5 (Homo sapiens) (UniProt Q15761); assay: Agonist activity at human NPY5 receptor at 100 uM to 5 mM
# T4 sequence (whole entry): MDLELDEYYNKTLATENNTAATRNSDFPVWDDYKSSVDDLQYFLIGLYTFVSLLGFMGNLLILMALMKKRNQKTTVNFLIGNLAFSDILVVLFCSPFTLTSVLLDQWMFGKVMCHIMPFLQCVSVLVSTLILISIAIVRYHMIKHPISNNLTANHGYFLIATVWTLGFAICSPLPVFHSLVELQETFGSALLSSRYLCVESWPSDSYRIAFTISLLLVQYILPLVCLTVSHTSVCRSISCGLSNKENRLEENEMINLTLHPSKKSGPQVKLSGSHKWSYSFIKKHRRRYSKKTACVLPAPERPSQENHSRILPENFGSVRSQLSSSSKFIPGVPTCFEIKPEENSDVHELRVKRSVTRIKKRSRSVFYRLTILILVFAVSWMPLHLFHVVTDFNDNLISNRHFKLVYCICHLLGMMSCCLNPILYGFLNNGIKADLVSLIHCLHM
# Adrenocorticotropic hormone receptor (Homo sapiens), sequence (Q01718 whole entry): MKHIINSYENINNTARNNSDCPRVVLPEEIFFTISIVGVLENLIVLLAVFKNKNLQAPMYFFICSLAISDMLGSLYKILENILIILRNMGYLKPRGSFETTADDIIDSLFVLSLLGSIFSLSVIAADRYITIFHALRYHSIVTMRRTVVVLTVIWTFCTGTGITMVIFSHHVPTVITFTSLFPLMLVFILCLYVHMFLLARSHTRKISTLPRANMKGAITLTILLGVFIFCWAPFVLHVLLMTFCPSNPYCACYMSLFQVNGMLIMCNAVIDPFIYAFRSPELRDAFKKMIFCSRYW
Activity [1],Activity [2],Activity [3],Activity [4],Activity [5],Activity [6],Activity [7],Activity [8],Activity [9],Activity [10],Structure (SMILES)
inactive,inactive,inactive,inactive,inactive,inactive,inactive,inactive,inactive,inactive,O=c1c(O)c(-c2c(F)cccc2Cl)oc2ccccc12
inactive,inactive,inactive,inactive,inactive,inactive,inactive,inactive,inactive,inactive,O=c1c(O)c(-c2c(F)ccc(F)c2Cl)oc2ccccc12
inactive,inactive,inactive,inactive,inactive,inactive,inactive,inactive,inactive,inactive,O=c1c(O)c(-c2ccc(Cl)cc2Cl)oc2ccccc12
inactive,inactive,inactive,inactive,inactive,inactive,inactive,inactive,inactive,inactive,O=c1c(O)c(-c2ccc(O)c(O)c2)oc2ccccc12
inactive,inactive,inactive,inactive,inactive,inactive,inactive,inactive,inactive,inactive,O=c1c(O)c(-c2cc(Br)ccc2F)oc2ccccc12
inactive,inactive,inactive,inactive,inactive,inactive,inactive,inactive,inactive,inactive,O=c1c(O)c(-c2cccc(Cl)c2)oc2ccccc12
inactive,inactive,inactive,inactive,inactive,inactive,inactive,inactive,inactive,inactive,COc1ccc(F)c(-c2oc3ccccc3c(=O)c2O)c1
inactive,inactive,inactive,inactive,inactive,inactive,inactive,inactive,inactive,inactive,Fc1ccccc1C1C=Cc2ccccc2O1 (racemic)

# More lines, now with the values behind:
Structure (SMILES),Activity [1],Activity [2],Activity [3],Activity [4],Activity [5],Activity [6],Activity [7],Activity [8],Activity [9],Activity [10]
O=c1cc(-c2ccc(Cl)cc2Cl)oc2ccccc12,inactive,inactive,inactive,inactive,inactive,inactive,inactive,inactive,inactive,inactive
COc1ccc(C2C=Cc3ccccc3O2)cc1O (racemic),inactive,inactive,inactive,inactive,inactive,inactive,inactive,inactive,inactive,inactive
O=c1c(OCCO)c(-c2cc(Br)ccc2F)oc2ccccc12,inactive,inactive,inactive,inactive,inactive,inactive,inactive,inactive,inactive,inactive
CN(C)c1ccc(-c2oc3ccccc3c(=O)c2O)cc1,inactive,inactive,inactive,inactive,inactive,inactive,inactive,inactive,inactive,inactive
Clc1ccc(C2C=Cc3ccccc3O2)c(Cl)c1 (racemic),inactive,inactive,inactive,inactive,inactive,inactive,inactive,inactive,inactive,inactive
